This note sets out measurements from PMC8151276, “An Integrated Approach toward NanoBRET Tracers for Analysis of GPCR Ligand Engagement” (Molecules, 2021).

The experiment concerns the target T1, LTB4R2 (Homo sapiens, UniProt Q9NPC1).
T1 construct: purchased Promega (in-house HiBiT-GPCR construct library, NanoBRET)
T1 sequence (Q9NPC1 1-358): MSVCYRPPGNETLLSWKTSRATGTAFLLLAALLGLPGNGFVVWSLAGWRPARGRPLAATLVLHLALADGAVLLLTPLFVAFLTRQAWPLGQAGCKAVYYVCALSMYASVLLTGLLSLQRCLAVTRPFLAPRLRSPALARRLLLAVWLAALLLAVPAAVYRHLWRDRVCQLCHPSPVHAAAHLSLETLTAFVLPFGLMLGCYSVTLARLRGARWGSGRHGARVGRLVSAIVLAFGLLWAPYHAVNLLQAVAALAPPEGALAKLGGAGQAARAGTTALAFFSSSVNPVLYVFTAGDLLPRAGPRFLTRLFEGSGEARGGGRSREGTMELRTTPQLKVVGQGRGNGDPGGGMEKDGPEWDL
The experiment is described as follows: NanoBRET screen HiBiT-LTB4R2 in HEK293. The experiment is classed as binding. As for the experimental part:
Each tracer candidate was screened across the entire library of HiBiT-GPCR constructs using NanoBRET as the detection modality. As depicted in Figure 4A, the specificity of interactions was evaluated through decrease in BRET due to competitive displacement of a bound tracer by excess parental compound. Each tracer was analyzed for binding to each HiBiT-GPCR fusion in the absence and in the presence of competing parental compound. Briefly, HEK293 cells were transfected with HiBiT-GPCR constructs diluted into promoterless DNA to reduce expression and maximize translocation to the cell surface. Each tracer candidate was then screened at concentrations of 1 μM and 0.1 μM across cells expressing these fusions. Cells were treated for 1.5 h with tracer either alone or in the presence of 20 μM competing parental compound (i.e., control). BRET was measured upon addition of purified LgBiT and subsequent complementation with HiBiT genetically fused to a GPCR. The specificity of interactions was assessed through a decrease in BRET signal due to competitive displacement of the bound tracer. To further gauge the robustness of these interactions, the fold response over the control (i.e., BRETtracer/BRETcontrol) was calculated. We chose a 1.5-fold response, which translates to ≥7-fold signal over noise as the minimal threshold required to score an interaction as positive. […]. Below we highlight the screening results obtained for our exemplary fluorescent tracers based on Clozapine, Amitriptyline and AZD1283.
HiBiT-GPCR DNA constructs were diluted in 10 mM Tris pH 8 to a final concentration of 0.01 μg/μL, arrayed in 96-well plates and stored at −20 °C. For transfection, HEK293 cells were suspended in Opti-MEM (without phenol red) supplemented with 2% fetal bovine serum (Seradigm) and 100 units/mL penicillin–streptomycin (Gibco) at a final concentration of 220,000 cells/mL and dispensed into white 96-well plates at 90 μL/well. Subsequent transfections and screens were carried using an Agilent Bravo Automated Liquid Handling Platform. First, the 96-well HiBiT DNA arrays were diluted 25-fold in Opti-MEM (without serum or phenol red) to a final concentration of 0.0004 μg/μL and 20 μL of the diluted DNAs were transferred into new 96-well plates. Next, promoterless carrier DNA (1 μg/μL) was diluted 25-fold (0.04 μg/μL) and then dispensed into the diluted arrays at 20 μL/well. Following brief mixing, Viafect transfection reagent (Promega) diluted 16-fold into Opti-MEM was dispensed into the plates at 40 μL/well. After mixing by pipetting, plates were incubated for 10 min on the pipetting station deck. The DNA-transfection reagent complexes were then added to plates containing cells. To facilitate the screen, 10 μL of DNA-transfection reagent complexes were added in duplicates to the top 4 and bottom 4 rows, resulting in two identical 48-well arrays per plate. Plates with transfected cells were incubated for 18–20 h at 37 °C/5% CO2. A screen of each tracer across the entire library using two different concentrations requires duplicate plates of transfected cells. Depending on the number of tracers being screened, transfections can be scaled up using the same ratios. The next day, for each tracer, four 20× screening solutions in tracer dilution buffer (Promega) were prepared: two duplicates at final concentration of 20 μM and two duplicates at a final concentration of 2 μM. A competing unmodified compound was added to one of each duplicate at a final concentration of 400 μM. The four resulting solutions were diluted 4-fold in Opti-MEM without serum or phenol red to generate 5× solutions (5 µM and 0.5 µM tracer +/− 100 μM competing compound). To screen the library, a BioTek MultiFlo FX liquid dispenser was used to dispense 22.5 µL of tracer solution to the top 4 rows and 22.5 µL tracer + competing compound solution to the 4 bottom rows. Plates were briefly mixed on an orbital shaker and incubated for 1.5 h at room temperature. […]
(Bioluminescence resonance energy transfer reports proximity on the nanometre scale.)

On to `O=C(CCc1ccc2n1[B-](F)(F)[N+]1=C(c3ccc[nH]3)C=CC1=C2)NCc1ccc(C(=O)NCCOCCC(=O)N[C@@H]2CC[C@@]3(O)[C@H]4Cc5ccc(O)c6c5[C@@]3(CCN4CC3CC3)[C@H]2O6)cc1` [Naltrexone-3-NB590], for which the “NanoBRET Fold Response” value reads like this: (LTB4R2, tracer 0.1μM) 0.89; (LTB4R2, tracer 1μM) 1.36.
As to `CN1CCN(C2=Nc3cc(Cl)ccc3N(CC(=O)NCCOCCOCCOCCOCCNC(=O)CCc3ccc4n3[B-](F)(F)[N+]3=C(c5ccc[nH]5)C=CC3=C4)c3ccccc32)CC1` [Clozapine-c-2-NB590], the “NanoBRET Fold Response” value turned out to be 1.02 (LTB4R2, 0.1μM tracer) and 0.91 (LTB4R2, 1μM tracer).
In the case of `O=C(CCOCCOCCOCCOCCNC(=O)CCc1ccc2n1[B-](F)(F)[N+]1=C(c3ccc[nH]3)C=CC1=C2)NCCCN1CCN(C2=Nc3cc(Cl)ccc3Nc3ccccc32)CC1` [Clozapine-a-2-NB590], the “NanoBRET Fold Response” value amounted to 1.03 (LTB4R2, 0.1μM tracer) and 0.88 (LTB4R2, 1μM tracer).
Regarding `CCOC(=O)c1cc(C#N)c(N2CCC(C(=O)NS(=O)(=O)Cc3ccccc3/C=C/C(=O)NCCNC(=O)CCc3ccc4n3[B-](F)(F)[N+]3=C(c5ccc[nH]5)C=CC3=C4)CC2)nc1C` [AZD1283-1-NB590], the “NanoBRET Fold Response” value reads like this: (LTB4R2, 0.1μM) 1.17; (LTB4R2, 1μM) 1.18.
Consider `COc1ccc2[nH]c(-c3ccc(CNC(=O)CCOCCOCCOCCOCCNC(=O)CCc4ccc5n4[B-](F)(F)[N+]4=C(c6ccc[nH]6)C=CC4=C5)cc3)c(CCNC(C)=O)c2n1` [AzomelatoninICO9-2-NB590], for which the “NanoBRET Fold Response” value was found to be 1.38 (0.1μM tracer) and 0.99 (1μM tracer).
Take `CCCn1c(=O)c2[nH]c(-c3ccc(OCC(=O)NCCNC(=O)CCOCCNC(=O)c4ccc(CNC(=O)CCc5ccc6n5[B-](F)(F)[N+]5=C(c7ccc[nH]7)C=CC5=C6)cc4)cc3)nc2n(CCC)c1=O` [XAC-3-NB590]: the “NanoBRET Fold Response” value runs as follows: (LTB4R2, tracer 0.1μM) 0.93; (LTB4R2, tracer 1μM) 0.98.
For `COc1ccccc1N1CCN(CCCCN2C(=O)c3ccc(CNC(=O)CCOCCNC(=O)c4ccc(CNC(=O)CCc5ccc6n5[B-](F)(F)[N+]5=C(c7ccc[nH]7)C=CC5=C6)cc4)cc3C2=O)CC1` [NAN-190-3-NB590], the “NanoBRET Fold Response” value is recorded as 0.76 (LTB4R2, tracer 0.1μM) and 1.30 (LTB4R2, tracer 1μM).
As for `CN(CCC=C1c2ccccc2CCc2ccccc21)C(=O)CCOCCOCCOCCOCCNC(=O)CCc1ccc2n1[B-](F)(F)[N+]1=C(c3ccc[nH]3)C=CC1=C2` [Amitriptyline-e-2-NB590], the “NanoBRET Fold Response” value (tracer at 1μM) amounted to 1.06.
`O=C(CCc1ccc2n1[B-](F)(F)[N+]1=C(c3ccc[nH]3)C=CC1=C2)NCc1ccc(C(=O)NCCOCCOCCNCC(O)COc2cccc3ccccc23)cc1` (centres unmarked) [Propranolol-3-NB590]: the “NanoBRET Fold Response” value was found to be 1.01 (LTB4R2, 0.1μM) and 0.96 (LTB4R2, 1μM).
Regarding `COc1ccc2c(n1)c(CCNC(C)=O)cn2CCNC(=O)CCc1ccc2n1[B-](F)(F)[N+]1=C(c3ccc[nH]3)C=CC1=C2` [Azamelatonin-1-NB590], the “NanoBRET Fold Response” value is, setting by setting: (0.1μM tracer) 1.02; (1μM tracer) 1.02.
`O=C(CCOCCOCCOCCOCCNC(=O)CCc1ccc2n1[B-](F)(F)[N+]1=C(c3ccc[nH]3)C=CC1=C2)NCCCN1CCN(C2=Nc3ccccc3Oc3ccc(Cl)cc32)CC1` [Loxapine-a-2-NB590]: the “NanoBRET Fold Response” value is listed as 0.90 (LTB4R2, tracer 0.1μM) and 0.95 (LTB4R2, tracer 1μM).
On to `COc1ccccc1N1CCN(CCCCN2C(=O)c3ccc(CNC(=O)CCOCCOCCOCCOCCNC(=O)CCc4ccc5n4[B-](F)(F)[N+]4=C(c6ccc[nH]6)C=CC4=C5)cc3C2=O)CC1` [NAN-190-2-NB590], for which the “NanoBRET Fold Response” value (LTB4R2, tracer 0.1μM) came to 0.95 and the “NanoBRET Fold Response” value (LTB4R2, tracer 1μM) is reported as 1.05.
With `CC(C)N(CC[C@H](c1ccccc1)c1cc(CCNC(=O)c2ccc(CNC(=O)CCc3ccc4n3[B-](F)(F)[N+]3=C(c5ccc[nH]5)C=CC3=C4)cc2)ccc1O)C(C)C` [Tolterodine-BZ-NB590], the “NanoBRET Fold Response” value was determined as 0.91 (LTB4R2, tracer 0.1μM) and 0.95 (LTB4R2, tracer 1μM).
The matching figures for `O=C(CCc1ccc2n1[B-](F)(F)[N+]1=C(c3ccc[nH]3)C=CC1=C2)NCCOCCOCCNC(=O)OCCOCCN1CCN(C2=Nc3ccccc3Sc3ccccc32)CC1` [Quetiapine-a-2-NB590]: 1.09 and 1.04.
Take `CN1CCN(C2=Nc3cc(Cl)ccc3Nc3ccc(CNC(=O)CCOCCOCCOCCOCCNC(=O)CCc4ccc5n4[B-](F)(F)[N+]4=C(c6ccc[nH]6)C=CC4=C5)cc32)CC1` [Clozapine-b-2-NB590]: the “NanoBRET Fold Response” value by setting is: (LTB4R2, 0.1μM tracer) 0.97; (LTB4R2, 1μM tracer) 1.16.
As for `CC(C)N(CC[C@H](c1ccccc1)c1cc(CCNC(=O)CCOCCOCCOCCOCCNC(=O)CCc2ccc3n2[B-](F)(F)[N+]2=C(c4ccc[nH]4)C=CC2=C3)ccc1O)C(C)C` [Tolterodine-2-NB590], the “NanoBRET Fold Response” value (LTB4R2, tracer 0.1μM) is given as 1.00 and the “NanoBRET Fold Response” value (LTB4R2, tracer 1μM) came to 1.22.
Consider `CN(C)CCC=C1c2ccccc2CCc2ccc(C(=O)NCCNC(=O)CCOCCOCCOCCOCCNC(=O)CCc3ccc4n3[B-](F)(F)[N+]3=C(c5ccc[nH]5)C=CC3=C4)cc21` [Amitriptyline-a-2-NB590], for which the “NanoBRET Fold Response” value reads like this: (tracer at 0.1μM) 0.97; (tracer at 1μM) 1.08.
For `Cc1cc2c(s1)Nc1ccccc1N=C2N1CCN(CCCNC(=O)CCOCCOCCOCCOCCNC(=O)CCc2ccc3n2[B-](F)(F)[N+]2=C(c4ccc[nH]4)C=CC2=C3)CC1` [Olanzapine-a-2-NB590], the “NanoBRET Fold Response” value was determined as 0.97 (LTB4R2, tracer 0.1μM) and 1.06 (LTB4R2, tracer 1μM).
With `N#CN=C(NCCCOc1cccc(CN2CCCCC2)c1)NCCNC(=O)CCOCCOCCOCCOCCNC(=O)CCc1ccc2n1[B-](F)(F)[N+]1=C(c3ccc[nH]3)C=CC1=C2` [Aminopotentidine-2-NB590], the “NanoBRET Fold Response” value (LTB4R2, tracer 0.1μM) is listed as 0.96 and the “NanoBRET Fold Response” value (LTB4R2, tracer 1μM) amounted to 1.04.
As for `Cc1nc2n(c(=O)c1CCN1CCC(c3noc4cc(F)ccc34)CC1)CCCC2OC(=O)NCCOCCOCCOCCOCCNC(=O)CCc1ccc2n1[B-](F)(F)[N+]1=C(c3ccc[nH]3)C=CC1=C2` (centres unmarked) [Risperidone-2-NB590], the “NanoBRET Fold Response” value is, setting by setting: (LTB4R2, tracer 0.1μM) 0.97; (LTB4R2, tracer 1μM) 0.94.
With `CN(C)CCC=C1c2ccccc2CCc2ccc(C(=O)NCCNC(=O)CCOCCOCCOCCOCCNC(=O)CCc3ccc4n3[B-](F)(F)[N+]3=C(c5ccc[nH]5)C=CC3=C4)cc21` [Amitriptyline-b-2-NB590], the “NanoBRET Fold Response” value by setting is: (tracer at 0.1μM, listed as amitriptyline-b-2-NB590) 1.03; (tracer at 1μM, listed as amitriptyline-b-2-NB590) 1.03.
